pKi: −log10 of the molar value. Counter-ions that a name gives are not always drawn.
target: T1, human V1a receptor (Homo sapiens, UniProt P37288); experiment: human V1a receptor binding (3H-Vasopressin SPA, HEK293 membranes); settings: displacement of 4 nM 3H-Vasopressin, membranes of HEK293 cells transiently transfected with human V1a receptor; Ki from IC50 by Cheng-Prussoff
T1 construct: expressed in transfected cells; host or cells: HEK293 cells, transiently transfected; cell membranes
How it was run: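 Transiently transfected HEK293 membranes on yttrium silicate SPA beads in Tris binding buffer (120 mM NaCl, 5 mM KCl, 2 mM CaCl2, 10 mM MgCl2). 3H-vasopressin added as 4 nM working solution; excess cold vasopressin set non-specific binding. 1 h at room temperature, then counting; Ki from fitted IC50 via Cheng-Prusoff.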

T1 sequence (P37288 whole entry): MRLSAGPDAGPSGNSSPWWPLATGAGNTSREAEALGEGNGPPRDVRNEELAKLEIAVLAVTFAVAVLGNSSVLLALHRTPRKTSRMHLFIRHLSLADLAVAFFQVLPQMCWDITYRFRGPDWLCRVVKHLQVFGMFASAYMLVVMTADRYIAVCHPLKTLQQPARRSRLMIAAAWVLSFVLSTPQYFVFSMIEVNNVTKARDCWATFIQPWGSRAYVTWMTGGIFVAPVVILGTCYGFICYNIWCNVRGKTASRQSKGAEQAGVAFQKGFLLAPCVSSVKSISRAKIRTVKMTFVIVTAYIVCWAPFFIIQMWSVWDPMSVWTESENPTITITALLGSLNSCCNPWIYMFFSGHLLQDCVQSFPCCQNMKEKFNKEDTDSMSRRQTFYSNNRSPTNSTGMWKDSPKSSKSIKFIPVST

Compound	pKi
Cc1c(C(=O)N2CCC3(CC2)OC(=O)c2ccc(Cl)cc23)c2ccccc2n1Cc1ccccc1 [Example 10, 1′-[(1-benzyl-2-methyl-1H-indol-3-yl)carbonyl]-6-chloro-3H-spiro[2-benzofuran-1,4′-piperidin]-3-one]	7.90
Cc1c(C(=O)N2CCC3(CC2)OCc2ccccc23)c2ccccc2n1Cc1cccc(F)c1 [Example 47, 1′-{[1-(3-fluorobenzyl)-2-methyl-1H-indol-3-yl]carbonyl}-3H-spiro[2-benzofuran-1,4′-piperidine]]	9.30
O=C(c1cn(Cc2cc(F)cc(F)c2)c2cc(Cl)ccc12)N1CCC2(CC1)CNc1ccccc12 [Example 93]	7.86
O=C(c1cn(CCN2CCOCC2)c2cc(Cl)ccc12)N1CCC2(CC1)COc1ccccc12 [Example 84, 1′-{[6-chloro-1-(2-morpholin-4-ylethyl)-1H-indol-3-yl]carbonyl}spiro[1-benzofuran-3,4′-piperidine]]	8.44
CN(C)CCNC(=O)Cn1cc(C(=O)N2CCC3(CC2)OCc2ccccc23)c2ccc(Cl)cc21 [Example 249, 2-[6-Chloro-3-(1′H,3H-spiro[2-benzofuran-1,4′-piperidin]-1′-ylcarbonyl)-1H-indol-1-yl]-N-[2-(dimethylamino)ethyl]acetamide]	8.62
CCC(C)C(=O)c1[nH]c2ccccc2c1C(=O)N1CCC2(CC1)OCc1ccccc12 (stereo not drawn) [Example 72, 2-methyl-1-[3-(1′H,3H-spiro[2-benzofuran-1,4′-piperidin]-1′-ylcarbonyl)-1H-indol-2-yl]butan-1-one]	8.54
O=C(c1cn(CC2CCOCC2)c2cc(Cl)ccc12)N1CCC2(CC1)OCc1ccccc12 [Example 263, 1′-{[6-Chloro-1-(tetrahydro-2H-pyran-4-ylmethyl)-1H-indol-3-yl]carbonyl}-3H-spiro[2-benzofuran-1,4′-piperidine]]	8.77
Cc1c(C(=O)N2CCC3(CC2)OC(=O)c2cc4c(cc23)OCO4)c2ccccc2n1Cc1ccccc1 [Example 34, 1′-[(1-benzyl-2-methyl-1H-indol-3-yl)carbonyl]-7H-spiro[furo[3,4-f][1,3]benzodioxole-5,4′-piperidin]-7-one]	8.68
O=C(c1cn(Cc2ccccc2)c2ccccc12)N1CCC2(CC1)OCc1ccccc12 [Example 68, 1′-[(1-benzyl-1H-indol-3-yl)carbonyl]-3H-spiro[2-benzofuran-1,4′-piperidine]]	8.16
CCN(CC)C(=O)c1[nH]c2cc(Cl)ccc2c1C(=O)N1CCC2(CC1)OC(=O)c1cc(F)ccc12 [Example 31, 6-chloro-N,N-diethyl-3-[(5-fluoro-3-oxo-1′H,3H-spiro[2-benzofuran-1,4′-piperidin]-1′-yl)carbonyl]-1H-indole-2-carboxamide]	7.91
N#CCCn1cc(C(=O)N2CCC3(CC2)OC(=O)c2ccccc23)c2ccc(Cl)cc21 [Example 35, 3-{6-chloro-3-[(3-oxo-1′H,3H-spiro[2-benzofuran-1,4′-piperidin]-1′-yl)carbonyl]-1H-indol-1-yl}propanenitrile]	8.60
O=C1OC2(CCN(C(=O)c3cn(Cc4ccncc4)c4cc(Cl)ccc34)CC2)c2ccccc21 [Example 168, 1′-{[6-Chloro-1-(pyridin-4-ylmethyl)-1H-indol-3-yl]carbonyl}-3H-spiro[2-benzofuran-1,4′-piperidin]-3-one]	8.62
Cc1c(C(=O)N2C[C@@H](C)[C@]3(OC(=O)c4ccccc43)[C@@H](C)C2)c2ccccc2n1Cc1ccccc1 [Example 281, (1R,3′R,5′S)-1′-[(1-Benzyl-2-methyl-1H-indol-3-yl)carbonyl]-3′,5′-dimethyl-3H-spiro[2-benzofuran-1,4′-piperidin]-3-one]	7.72
O=C(c1cn(Cc2ccccc2)c2ccccc12)N1CCC2(C=Cc3ccccc32)CC1 [Example 3, 1′-[(1-benzyl-1H-indol-3-yl)carbonyl]spiro[indene-1,4′-piperidine]]	8.00
O=C(c1c[nH]c2cc(Cl)ccc12)N1CCC2(CC1)CNc1ccccc12 [Example 8, 1′-[(6-chloro-1H-indol-3-yl)carbonyl]-1,2-dihydrospiro[indole-3,4′-piperidine]]	7.57
Cc1c(C(=O)N2CCC3(CC2)OC(=O)c2cc(F)ccc23)c2ccccc2n1Cc1ccccc1 [Example 23, 1′-[(1-benzyl-2-methyl-1H-indol-3-yl)carbonyl]-5-fluoro-3H-spiro[2-benzofuran-1,4′-piperidin]-3-one]	7.96
CN1CCC[C@H]1Cn1cc(C(=O)N2CCC3(CC2)OCc2ccccc23)c2ccc(Cl)cc21 [Example 268]	10.15
CN(C)C(=O)Cn1cc(C(=O)N2CCC3(CC2)OC(=O)c2ccccc23)c2ccc(Cl)cc21 [Example 106, 2-{6-Chloro-3-[(3-oxo-1′H,3H-spiro[2-benzofuran-1,4′-piperidin]-1′-yl)carbonyl]-1H-indol-1-yl}-N,N-dimethylacetamide]	9.40
O=C(c1cn(Cc2ccccn2)c2cc(Cl)ccc12)N1CCC2(CC1)OCc1ccccc12 [Example 231, 1′-{[6-Chloro-1-(pyridin-2-ylmethyl)-1H-indol-3-yl]carbonyl}-3H-spiro[2-benzofuran-1,4′-piperidine]]	8.80
O=C1OC2(CCN(C(=O)c3c[nH]c4cc(Cl)ccc34)CC2)c2cc(Cl)ccc21 [Example 20, 6-chloro-1′-[(6-chloro-1H-indol-3-yl)carbonyl]-3H-spiro[2-benzofuran-1,4′-piperidin]-3-one]	7.80

More lines, now with the values ahead:

pKi	Compound
7.41	O=C1OC2(CCN(C(=O)c3cn(C(=O)c4cccc(-c5ccccc5)c4)c4cc(Cl)ccc34)CC2)c2ccccc21 [Example 158, 1′-{[1-(Biphenyl-3-ylcarbonyl)-6-chloro-1H-indol-3-yl]carbonyl}-3H-spiro[2-benzofuran-1,4′-piperidin]-3-one]
8.82	Cc1noc(C)c1Cn1cc(C(=O)N2CCC3(CC2)OCc2ccccc23)c2ccc(Cl)cc21 [Example 241]
7.40	O=C1OC2(CCN(C(=O)c3cn(-c4ccccc4-c4ccccc4)c4cc(Cl)ccc34)CC2)c2ccccc21 [Example 157, 1′-[(1-Biphenyl-2-yl-6-chloro-1H-indol-3-yl)carbonyl]-3H-spiro[2-benzofuran-1,4′-piperidin]-3-one]
8.82	O=C(c1cn(CC2CNCCO2)c2cc(Cl)ccc12)N1CCC2(CC1)OCc1ccccc12 (stereo not drawn) [Example 248, 1′-{[6-Chloro-1-(morpholin-2-ylmethyl)-1H-indol-3-yl]carbonyl}-3H-spiro[2-benzofuran-1,4′-piperidine]hydrochloride]
8.40	Cc1nc(Cn2cc(C(=O)N3CCC4(CC3)OCc3ccccc34)c3ccc(Cl)cc32)c(C2CC2)o1 [Example 237]
8.52	O=C1OC2(CCN(C(=O)c3cn(-c4cc(F)cc(F)c4)c4cc(Cl)ccc34)CC2)c2ccccc21 [Example 127, 1′-{[6-Chloro-1-(3,5-difluorophenyl)-1H-indol-3-yl]carbonyl}-3H-spiro[2-benzofuran-1,4′-piperidin]-3-one]
8.80	O=C(Cn1cc(C(=O)N2CCC3(CC2)OCc2ccccc23)c2ccc(Cl)cc21)c1ccccn1 [Example 229, 2-[6-Chloro-3-(1′H,3H-spiro[2-benzofuran-1,4′-piperidin]-1′-ylcarbonyl)-1H-indol-1-yl]-1-pyridin-2-ylethanone]
8.77	CNC(=O)Cn1cc(C(=O)N2CCC3(CC2)OC(=O)c2cc(F)ccc23)c2ccc(Cl)cc21 [Example 116, 2-{6-Chloro-3-[(5-fluoro-3-oxo-1′H,3H-spiro[2-benzofuran-1,4′-piperidin]-1′-yl)carbonyl]-1H-indol-1-yl}-N-methylacetamide]
8.82	O=C(c1cn(Cc2ccncc2)c2cc(Cl)ccc12)N1CCC2(CC1)OCc1ccccc12 [Example 228]
8.24	O=C1OC2(CCN(C(=O)c3cn(CC4CNCCO4)c4cc(Cl)ccc34)CC2)c2ccc(F)cc21 (stereo not drawn) [Example 200, 1′-{[6-Chloro-1-(morpholin-2-ylmethyl)-1H-indol-3-yl]carbonyl}-5-fluoro-3H-spiro[2-benzofuran-1,4′-piperidin]-3-one dihydrochloride]
8.52	CC(C)(C)OC(=O)N1CCOC(Cn2cc(C(=O)N3CCC4(CC3)OC(=O)c3ccccc34)c3ccc(Cl)cc32)C1 (stereo not drawn) [Example 197, tert-Butyl 2-({6-chloro-3-[(3-oxo-1′H,3H-spiro[2-benzofuran-1,4′-piperidin]-1′-yl)carbonyl]-1H-indol-1-yl}methyl)morpholine-4-carboxylate]
8.57	Cc1cc2c(C(=O)N3CCC4(CC3)OC(=O)c3ccccc34)cn(CC(=O)N(C)C)c2cc1Cl [Example 120, 2-{6-Chloro-5-methyl-3-[(3-oxo-1′H,3H-spiro[2-benzofuran-1,4′-piperidin]-1′-yl)carbonyl]-1H-indol-1-yl}-N,N-dimethylacetamide]
8.42	O=C(c1cn(-c2ccccn2)c2cc(Cl)ccc12)N1CCC2(CC1)OCc1ccccc12 [Example 227]
7.93	CCN(CC)C(=O)Cn1cc(C(=O)N2CCC3(CC2)OC(=O)c2ccccc23)c2ccccc21 [Example 203, N,N-Diethyl-2-{3-[(3-oxo-1′H,3H-spiro[2-benzofuran-1,4′-piperidin]-1′-yl)carbonyl]-1H-indol-1-yl}acetamide]
8.48	CC(C)(C)OC(=O)N1CCOC(Cn2cc(C(=O)N3CCC4(CC3)OC(=O)c3cc(F)ccc34)c3ccc(Cl)cc32)C1 (stereo not drawn) [Example 199, tert-Butyl 2-({6-chloro-3-[(5-fluoro-3-oxo-1′H,3H-spiro[2-benzofuran-1,4′-piperidin]-1′-yl)carbonyl]-1H-indol-1-yl}methyl)morpholine-4-carboxylate]
8.60	N#CCCn1cc(C(=O)N2CCC3(CC2)OC(=O)c2cc(F)ccc23)c2ccc(Cl)cc21 [Example 175, 3-{6-Chloro-3-[(5-fluoro-3-oxo-1′H,3H-spiro[2-benzofuran-1,4′-piperidin]-1′-yl)carbonyl]-1H-indol-1-yl}propanenitrile]
